We go through three compounds from ChEMBL document CHEMBL5120968, “Syzysamalactone, an Unusual 11-Carbon δ-Lactone Derivative from the Fresh Ripe Fruits of Syzygium samarangense (Wax Apple)” (J Nat Prod, 2022).

This assay concerns SH-SY5Y. The assay is described as follows: Neuroprotective activity against 6-OHDA induced cell death in human SH-SY5Y cells preincubated with 6-hyrdoxydopamine followed by compound addition and measured after 24 hrs by MTT assay. The format is functional, cell-based.
With `CC[C@H]1CCc2oc(=O)ccc2[C@H]1O`, the concentration giving a half-maximal response (EC50) (commonly the midpoint of the concentration-response curve) came out at 290 nM.

`CCCCCc1cccc(=O)o1` returned a concentration giving a half-maximal response (EC50) of 1280 nM. The compound `COc1cc(/C=C/C(=O)CC(=O)/C=C/c2ccc(O)c(OC)c2)ccc1O` [CURCUMIN] returned a 50% effective concentration (EC50) of 5290 nM.
